In patent publication US20090155209A1, “NOVEL MACROCYCLIC INHIBITORS OF HEPATITIS C VIRUS REPLICATION” (priority 2007, published 2009):
Several values for one entry are separate records, joined by “and”; a condition that tells them apart may be missing. Equal values may be shown once. Read-outs that look alike come from different tables or passages of the source.

Assay: Single ascending dose study, fasted and fed: safety and non-compartmental plasma PK
Type: in vivo, healthy volunteers (human)
Conditions: for median percentage change in AUC0-inf between the fasted and fed conditions: 10 subjects
Procedure: A single ascending dose (SAD) study of the compound 100 was conducted in healthy volunteers. The compound 100 was administered as monotherapy both with and without food. The safety and pharmacokinetic profile of the single dose of the compound 100 was assessed.
Interim, blinded data were used for Pharmacokinetic (PK) study relating to food effects. With the exception of the 400 mg cohort, eight subjects were studied at each dose (single doses of 100, 200, or 800 mg of the sodium salt of the compound 100, which may be referred to herein as ITMN-191, administered in the fasting state). In the 400 mg cohort, ten subjects received single 400 mg doses of ITMN-191 under both fasted and fed conditions with a 5-day washout period between dosing. In the 100 mg cohort, subjects were sampled within 1 hour before dosing and at 0.5, 1, 1.5, 2, 2.5, 3, 4, 6, 8, 12, 18, 24, 32 and 48 hours after dosing. For subsequent cohorts, subjects were sampled within 1 hour before dosing and at 0.25, 0.5, 1, 1.5, 2, 2.5, 3, 4, 6, 8, 12, 18, 24, and 32 hours after dosing. Nominal (not actual) sampling times were used for the analysis. PK samples were analyzed using liquid chromatography-tandem mass spectrometry (LC/MS/MS with API 4000 mass spectrometer) following solid-phase extraction. The upper and lower limits of quantitation (ULOQ and LLOQ) are 100 and 0.01 ng/mL, respectively.
Pharmacokinetic parameter estimates were calculated using non-compartmental methods (implemented using Microsoft Excel®). Half-lives were determined by visual inspection of the log concentration-time plots to choose the terminal phase (minimum of three detectable observations). Using linear regression of the chosen terminal phase observations, elimination rate constants were calculated as the negative slope of the regression line and half-life as the natural log of 2 divided by the elimination rate constant.
Ten subjects received single 1600 mg doses of ITMN-191 under both fasted and fed conditions with a 5-day washout period between dosing. For each condition, subjects were sampled within 1 hour before dosing and at 0.25, 0.5, 1, 1.5, 2, 2.5, 3, 4, 6, 8, 12, 18, 24, and 32 hours after dosing. Pharmacokinetic parameter estimates were calculated using non-compartmental methods. Half-life (t1/2) was determined by visual inspection of the log concentration-time plots to choose the terminal phase (minimum of three detectable observations). Using linear regression of the chosen terminal phase observations, elimination rate constants were calculated as the negative slope and half-life as the natural log of 2 divided by the elimination rate constant.

[1] = individual subjects, single 1600 mg dose, Fasted
[2] = individual subjects, single 1600 mg dose, Fed

CC(C)(C)OC(=O)N[C@H]1CCCCC/C=C\[C@@H]2C[C@@]2(C(=O)NS(=O)(=O)C2CC2)NC(=O)[C@@H]2C[C@@H](OC(=O)N3Cc4cccc(F)c4C3)CN2C1=O [ITMN-191]
AUC0-inf (human, plasma, oral, 1600 mg, Geometric Mean of 10 subjects, single 1600 mg dose, Fed, read-out: AUC0-inf): 1.01 µg·h/mL | Cmax (human, plasma, oral, 1600 mg, Geometric Mean of 10 subjects, single 1600 mg dose, Fed, read-out: Cmax): 0.422 µg/mL | half-life (human, plasma, oral, 1600 mg, Geometric Mean of 10 subjects, single 1600 mg dose, Fed, read-out: t½ (converted)): 2.5 h | AUC0-inf (human, plasma, oral, 1600 mg, Harmonic Mean of 10 subjects, single 1600 mg dose, Fasted, read-out: AUC0-inf): 0.639 µg·h/mL | Cmax (human, plasma, oral, 1600 mg, Harmonic Mean of 10 subjects, single 1600 mg dose, Fasted, read-out: Cmax): 0.453 µg/mL | half-life (human, plasma, oral, 1600 mg, Harmonic Mean of 10 subjects, single 1600 mg dose, Fasted, read-out: t½ (converted)): 2.29 h | AUC0-inf (human, plasma, oral, 1600 mg, Harmonic Mean of 10 subjects, single 1600 mg dose, Fed, read-out: AUC0-inf): 0.949 µg·h/mL | Cmax (human, plasma, oral, 1600 mg, Harmonic Mean of 10 subjects, single 1600 mg dose, Fed, read-out: Cmax): 0.326 µg/mL | half-life (human, plasma, oral, 1600 mg, Harmonic Mean of 10 subjects, single 1600 mg dose, Fed, read-out: t½ (converted)): 2.43 h | AUC0-inf (human, plasma, oral, 1600 mg, Mean of 10 subjects, single 1600 mg dose, Fasted, read-out: AUC0-inf): 0.691 µg·h/mL | Cmax (human, plasma, oral, 1600 mg, Mean of 10 subjects, single 1600 mg dose, Fasted, read-out: Cmax): 0.622 µg/mL | half-life (human, plasma, oral, 1600 mg, Mean of 10 subjects, single 1600 mg dose, Fasted, read-out: t½ (converted)): 2.48 h | AUC0-inf (human, plasma, oral, 1600 mg, Mean of 10 subjects, single 1600 mg dose, Fed, read-out: AUC0-inf): 1.07 µg·h/mL | Cmax (human, plasma, oral, 1600 mg, Mean of 10 subjects, single 1600 mg dose, Fed, read-out: Cmax): 0.528 µg/mL | half-life (human, plasma, oral, 1600 mg, Mean of 10 subjects, single 1600 mg dose, Fed, read-out: t½ (converted)): 2.56 h | AUC0-inf (human, plasma, oral, 1600 mg, Median of 10 subjects, single 1600 mg dose, Fasted, read-out: AUC0-inf): 0.737 µg·h/mL | Cmax (human, plasma, oral, 1600 mg, Median of 10 subjects, single 1600 mg dose, Fasted, read-out: Cmax): 0.685 µg/mL | Tmax (human, plasma, oral, 1600 mg, Median of 10 subjects, single 1600 mg dose, Fasted, read-out: Tmax): 0.5 h | half-life (human, plasma, oral, 1600 mg, Median of 10 subjects, single 1600 mg dose, Fasted, read-out: t½ (converted)): 2.21 h | AUC0-inf (human, plasma, oral, 1600 mg, Median of 10 subjects, single 1600 mg dose, Fed, read-out: AUC0-inf): 1.12 µg·h/mL | Cmax (human, plasma, oral, 1600 mg, Median of 10 subjects, single 1600 mg dose, Fed, read-out: Cmax): 0.449 µg/mL | Tmax (human, plasma, oral, 1600 mg, Median of 10 subjects, single 1600 mg dose, Fed, read-out: Tmax): 1.75 h | half-life (human, plasma, oral, 1600 mg, Median of 10 subjects, single 1600 mg dose, Fed, read-out: t½ (converted)): 2.64 h | half-life (human, plasma, oral, 1600 mg, individual subjects, single 1600 mg dose, Fed, read-out: t½ (converted)): 3 h | half-life (human, plasma, oral, in most subjects, read-out: terminal half-life): 1 to 2 h | AUC0-inf [1]: 0.89 µg·h/mL and 0.36 µg·h/mL and 0.529 µg·h/mL and 0.507 µg·h/mL and 0.907 µg·h/mL and 0.809 µg·h/mL and 0.753 µg·h/mL and 0.652 µg·h/mL and 0.72 µg·h/mL and 0.779 µg·h/mL | Cmax [1]: 0.892 µg/mL and 0.225 µg/mL and 0.548 µg/mL and 0.214 µg/mL and 1 µg/mL and 0.86 µg/mL and 0.305 µg/mL and 0.909 µg/mL and 0.822 µg/mL and 0.442 µg/mL | AUC0-inf [2]: 1.895 µg·h/mL and 0.583 µg·h/mL and 0.939 µg·h/mL and 1.116 µg·h/mL and 1.225 µg·h/mL and 1.209 µg·h/mL and 0.806 µg·h/mL and 1.133 µg·h/mL and 1.174 µg·h/mL | Cmax [2]: 1.51 µg/mL and 0.381 µg/mL and 0.199 µg/mL and 0.1 µg/mL and 0.444 µg/mL and 0.592 µg/mL and 0.454 µg/mL and 0.346 µg/mL and 0.76 µg/mL and 0.493 µg/mL | Tmax [2]: 1.5 h and 4 h and 2 h | t½ [2]: 2.01 h and 2.65 h and 1.80 h and 3.35 h and 2.16 h and 2.63 h and 1.82 h and 2.70 h and 3.48 h | subjects with an increase in AUC0-inf under fed conditions (single 400 mg dose): 8 of 10 | median percentage change in AUC0-inf between the fasted and fed conditions (single 400 mg dose): 26% | subjects with an increase in AUC0-inf under fed conditions (single 1600 mg dose): 10 of 10 | median percentage change in AUC0-inf between the fasted and fed conditions (single 1600 mg dose): 54%
